Laboratory results: patent EP2266984A1, “Pyrido[2,3-d]pyrimidines as Wnt antagonists for treatment of cancer and arthritis” (Deutsches Krebsforschungszentrum Stiftung des öffentlichen …, priority 2009, dated 2010)

Experiments:
HepG2 = assay: CellTiterGlo cytotoxicity assay in HepG2; format: cell-based; details: 24h after compound addition
Procedure: For examination of cytotoxicity in these cancer cell lines the commercial available CellTiterGlo® Reagent (Promega, USA) was used according to the manufactor.
Compounds were applied to Hek293T (denoted (1)) or HepG2 (denoted (2)), cultured in Dulbecco's Modified Eagles Medium, supplemented with 10% fetal calf serum and 1% penicillin/streptomycin. Cells were grown in T75 flasks at 37 °C, 5% CO2 and trypsinized when 60-80% confluent by adding 2 ml of 0.25% Trypsin-EDTA solution. Cells were then re-suspended into culture medium yielding approx. 4000 cells (1) or 4500 cells (2), suspended in 30 microl medium. 48h after cell seeding, compounds were added to yield the desired final concentrations. 24h after compound addition cytotoxicity was evaluated. For this purpose the media was removed and CellTiterGlo® was added according to the manufactors manual. In this assay the luciferase emission readout is directly correlated with the cellular amount of ATP, low luciferase emission thus is reflecting cytotoxicity of a compound. For the evaluation of the IC50 the compound was applied in increasing concentrations yielding final concentrations per well of 5nM - 100 microM.

[1] = test system: human colon carcinoma cells HCT116; assay: Antiproliferative activity against HCT116, count of Hoechst labeled nuclei; format: cell-based; details: for Normalized cell count (HCT 116): HCT116 colon carcinoma cells
Procedure: For examination of cell line-specific cytotoxicity, compounds were applied to human colorectal cancer cells (HCT116, denoted (1); SW480, denoted (2); Dld-1, denoted (3)) and human fibroblasts (HFF-1, denoted (4); HS-68, denoted (5)), cultured in Mc Coy's (1) and Dulbecco's Modified Eagles Medium ((2)-(5)), supplemented with 10% ((1)-(3)) and 20% ((4), (5)) fetal calf serum and 1% penicillin/streptomycin. Cells were grown in T75 flasks at 37 °C, 5% CO2 and trypsinized when 60-80% confluent by adding 2 ml of 0.25% Trypsin-EDTA solution. Cells were then re-suspended into culture medium yielding approx. 750 cells, suspended in 45 microl medium, were plated into each well of a black 384-well plate for fluorescence imaging experiments. 24 - 36 hr later 5 microl compound solution (100 microM compound dissolved in ultra pure water containing 1% DMSO), were added to achieve a final concentration of 10 microM and were incubated for at least 72 hr. Compound incubation was terminated by (a) fixation and (b) permeabilisation of cells, followed by (c) fluorescence labeling of cell nuclei for cytometric quantification or by immunocytochemistry for microscopic evaluation of cell morphology. The three steps were performed by replacing the solution of the previous step in each well of a 384-well plate by (a) 30 microl PBS (phosphate buffered saline) containing 5% PFA (paraformaldehyde), (b) 30 microl PBS containing 0.2% TritonX-100 and (c) 10 microl PBS containing Hoechst-33342 for cytometry or Hoechst-33342, FITC-(fluorescein isothiocyanate-)labeled alpha-tubulin antibodies and TRITC-(tetramethylrhodamine isothiocyanate-)labeled phalloidin for microscopy. Solutions were incubated for 15 (a,b) and 30 min (c) in the dark at room temperature. Cells were washed twice between each step with 30 microl PBS. The assay system was miniaturized and adapted to automated workflow using liquid-handling robotics.
Cell line-specific cytotoxicity was quantified by counting the number of Hoechst labeled nuclei per well of a 384-well plate using a plate cytometer. Data obtained with the cytometer was analysed using standard data analysis software. […]
The examination of the antiproliferative activity against human colon carcinoma cells HCT116 was carried out in analogy to example 203. […] Compounds of the present invention have potent antiproliferative acivity against human colon carcinoma cells as shown for HCT116 in Table 6.

HFF-1 = assay: Cell line specific cytotoxicity, HFF-1 fibroblasts; format: cell-based, human; details: 10 microM; HFF-1 cell line
Procedure: For examination of cell line-specific cytotoxicity, compounds were applied to human colorectal cancer cells (HCT116, denoted (1); SW480, denoted (2); Dld-1, denoted (3)) and human fibroblasts (HFF-1, denoted (4); HS-68, denoted (5)), cultured in Mc Coy's (1) and Dulbecco's Modified Eagles Medium ((2)-(5)), supplemented with 10% ((1)-(3)) and 20% ((4), (5)) fetal calf serum and 1% penicillin/streptomycin. Cells were grown in T75 flasks at 37 °C, 5% CO2 and trypsinized when 60-80% confluent by adding 2 ml of 0.25% Trypsin-EDTA solution. Cells were then re-suspended into culture medium yielding approx. 750 cells, suspended in 45 microl medium, were plated into each well of a black 384-well plate for fluorescence imaging experiments. […] Compound incubation was terminated by (a) fixation and (b) permeabilisation of cells, followed by (c) fluorescence labeling of cell nuclei for cytometric quantification or by immunocytochemistry for microscopic evaluation of cell morphology. […]
Cell line-specific cytotoxicity was quantified by counting the number of Hoechst labeled nuclei per well of a 384-well plate using a plate cytometer. Data obtained with the cytometer was analysed using standard data analysis software.
Identified hits were further evaluated by visual inspection of fluorescence micrographs obtained from imaging using a conventional fluorescence microscope.

Structure (SMILES)	Normalized toxicity values (HepG2) (HepG2; 0.005 microM)	Normalized toxicity values (HepG2) (HepG2; 0.015 microM)	Normalized toxicity values (HepG2) (HepG2; 0.046 microM)	Normalized toxicity values (HepG2) (HepG2; 0.137 microM)	Normalized toxicity values (HepG2) (HepG2; 0.412 microM)	Normalized toxicity values (HepG2) (HepG2; 1.235 microM)	Normalized toxicity values (HepG2) (HepG2; 3.704 microM)	Normalized toxicity values (HepG2) (HepG2; 11.111 microM)	Normalized toxicity values (HepG2) (HepG2; 33.333 microM)	Normalized toxicity values (HepG2) (HepG2; 100.000 microM)	Normalized cell count (HCT 116) ([1]; 0.005 microM)	Normalized cell count (HCT 116) ([1]; 0.015 microM)	Normalized cell count (HCT 116) ([1]; 0.046 microM)	Normalized cell count (HCT 116) ([1]; 0.137 microM)	Normalized cell count (HCT 116) ([1]; 0.412 microM)	Normalized cell count (HCT 116) ([1]; 1.235 microM)	Normalized cell count (HCT 116) ([1]; 3.704 microM)	Normalized cell count (HCT 116) ([1]; 11.111 microM)	Normalized cell count (HCT 116) ([1]; 33.333 microM)	Normalized cell count (HCT 116) ([1]; 100.000 microM)	further results
CCOC(=O)c1c(C)nc2c(c(N3CCN(Cc4ccccc4F)CC3)nc(=O)n2-c2ccccc2)c1-c1ccccc1 [Example 150]	1.1325	1.1350	1.0275	1.0350	0.9625	0.9870	1.0658	1.0800	1.1425	1.2175	1	1.076	1.153	1.2	1.087	1.105	0.8597	0.4595	0.1363	0.1263	
CCOC(=O)c1c(C)nc2c(c(N3CCN(C/C=C/c4ccccc4)CC3)nc(=O)n2-c2ccccc2)c1-c1ccccc1 [Example 153, 7-Methyl-2-oxo-1,5-diphenyl-4-[4-((E)-3-phenyl-allyl)-piperazin-1-yl]-1,2-dihydro-pyrido[2,3-d]pyrimidine-6-carboxylic acid ethyl ester]	1.0700	1.0658	0.9725	0.9743	0.9480	0.9543	1.1225	1.2725	1.2650	0.0718	1	0.9124	0.9327	0.9534	0.8371	0.7255	0.538	0.1546	0.09126	0.1143	IC50 ([1]; Homo sapiens, HCT-116, HCT116, read-out: IC50 of the antiproliferation activity): 3.1 ± 0.6 µM; Effect on normal cells (HFF-1) (HFF-1): not affected
CCOC(=O)c1c(C)nc2c(c(N3CCN(C(c4ccc(F)cc4)c4ccc(F)cc4)CC3)nc(=O)n2-c2ccccc2)c1-c1ccccc1 [Example 157]	1.1125	1.0775	1.1275	1.0175	0.9413	0.9785	0.9853	1.0043	1.1100	1.1575	1	1.101	1.031	1.151	1.072	0.9399	0.8282	0.7256	0.3684	0.2263	
